“Also recorded” adds a separate entry of the source.

These results are taken from publication PMC4585333, “Novel Regulator of Acylated Ghrelin, CF801, Reduces Weight Gain, Rebound Feeding after a Fast, and Adiposity in Mice” (Frontiers in Endocrinology, 2015).

Assay type in all cases: in vivo, male C57BL/6J mice
The nature of experiment [1]: Rebound food intake after a fast. As to the method:
(§1) In general, male C57BL/6J mice (The Jackson Laboratory, Bar Harbor, ME, USA) weighing 20–25 g were used as experimental subjects. Throughout the duration of the studies, mice were housed under standard laboratory conditions and received ad libitum access to standard laboratory mouse chow and tap water. Lights in the facility were set to go on and off at 12 h intervals with the lights going on at 7:00 a.m. In some experiments, mice also had ad libitum access to a high-fat diet containing 60% caloric content from fat (TD 06414; Harlan Teklad, Indianapolis, IN, USA) in addition to regular chow to measure dietary preferences. All procedures were approved by the Carleton University Animal Care Committee and followed the guidelines of the Canadian Council on Animal Care.
(§2) Mice (n = 16) were singly housed and given free access to water and regular chow for a 4-day baseline period. After this, mice were assigned to one of three groups: vehicle (n = 5), CF801 low dose (n = 5; 11 μmol⋅kg^−1 – LD), or CF801 high dose (n = 6; 22 μmol⋅kg^−1 – HD). These mice were injected intraperitoneally once a day for 4 days starting at 10:00 a.m. Following 4 days of treatment, animals were tested for rebound feeding after a fast. To do this, we removed the food from each cage 1 h before lights out (6:00 p.m.), and food was returned to the cage the following day 1 h after the last injection. Food intake was then monitored every hour for 4 h to determine the effects of CF801 on rebound feeding. Animals were then sacrificed by rapid decapitation to collect trunk blood and other tissues. Two samples were lost during sample collection, so the number of samples used to measure acylated ghrelin was reduced to n = 14.

A further experiment has as its system plasma acylated ghrelin. As to the kind of experiment: Plasma acylated ghrelin in fasted mice (ELISA). The protocol:
as §1
Mice (n = 16) were singly housed and given free access to water and regular chow for a 4-day baseline period. After this, mice were assigned to one of three groups: vehicle (n = 5), CF801 low dose (n = 5; 11 μmol⋅kg^−1 – LD), or CF801 high dose (n = 6; 22 μmol⋅kg^−1 – HD). […] Food intake was then monitored every hour for 4 h to determine the effects of CF801 on rebound feeding. […]
Following the treatment or recovery periods, mice were killed by rapid decapitation and plasma and tissue samples were collected. […] Plasma acylated ghrelin for all animals was measured using an ELISA kit (Millipore).
(ELISA stands for enzyme-linked immunosorbent assay.)

A short description of experiment [2]: Food intake and dietary preference (chow and high-fat diet). The protocol:
as §1
A second cohort of mice (n = 30) was acclimated to the laboratory conditions for 1 week prior to the onset of the experiment. Mice were housed individually and their body weight and food intake was recorded daily for a baseline period of 10 days. Given that ghrelin augments the intake of preferred diets ([28]), all mice received ad libitum access to a high-fat diet (60% of calories coming from fat), in addition to regular chow, to determine if CF801 altered dietary preference. Both chow and high-fat diet pellets were provided daily to mice ad libitum in pre-weighed amounts. Mice were then assigned to four different groups: non-injected control (NIC; n = 7), vehicle (0.9% saline) (VEH; n = 7), low-dose CF801 (11 μmol⋅kg^−1 – LD; n = 8) and high-dose CF801 (22 μmol⋅kg^−1 – HD; n = 8). Each day at 09:00 hours, mice were weighed and their food intake (both chow and high-fat diet) was recorded. After this, mice received an intraperitoneal injection of either CF801 or saline (except for the non-injected controls). Following the 13-day treatment period, half the animals in each group were sacrificed, while the remaining mice were allowed to recover from treatment. […] At this point, the remaining mice were sacrificed. Carcasses from all animals were frozen and stored at −80°C until they were scanned for body composition analyses. Immediately prior to analysis, all carcasses were thawed to room temperature and weighed in order to obtain measures relative to total carcass mass. EchoMRI carcass analyses were performed at Health Canada, Nutrition Research Division facilities using the EchoMRI-1100 (System ID EF-020) scanner. Each carcass was analyzed separately and measurements of total fat mass, total lean mass, and total water weight were obtained for each mouse.

Experiment [3] can be described thus: Blood glucose in trunk blood. To be noted: after 4 days i.p. treatment, fast and refeeding, F(1,15) = 1.105, p > 0.05. As to the method: as §2
Following the treatment or recovery periods, mice were killed by rapid decapitation and plasma and tissue samples were collected. To measure glucose levels, glucose strips attached to a Contour glucose meter (Bayer Corp., Pittsburgh, PA, USA) were dipped in trunk blood collected before being centrifuged. […] Plasma acylated ghrelin for all animals was measured using an ELISA kit (Millipore).

Experiment [4] is described as follows: Indirect calorimetry, respiratory exchange ratio. To be noted: 22 μmol⋅kg^−1 i.p. daily for a week, 4-h period following injection, n = 5 vs saline n = 5; t(5) = 3.457, p < 0.05. As to the method:
Mice (n = 10) were housed individually and their body weight and food intake was recorded daily for a baseline period of 10 days. As in Experiment 1, all mice had ad libitum access to regular lab chow and a high-fat diet (60% of calories coming from fat). At the end of the baseline, mice were housed in metabolic chambers (TSE Systems) for 48 h to examine metabolic rate using indirect calorimetry prior to the onset of the drug treatment. While indirect calorimetry measures were obtained throughout the 48-h period, we only analyzed measurements in the last 24 h to allow the animals to adjust to the chambers. Mice were then assigned to one of two groups: vehicle (0.9% saline) (VEH; n = 5) and CF801 (22 μmol⋅kg^−1; n = 5). Each day at 09:00 hours, mice were weighed and their food intake (both chow and high-fat diet) was recorded, and then received an intraperitoneal injection of either CF801 or saline. Drug treatment continued for 16 days. On the eighth day, mice were again placed in the metabolic chambers for 48 h while still being monitored and injected with their respective treatment to determine differences in metabolism produced by the drug.
Given that treatment with CF801 decreased weight gain without altering caloric intake, we reasoned that perhaps CF801 was exerting its effects at the metabolic level. […]

Another experiment is described as follows: Body weight gain. The note with it: 13 days. As to the method: as §1
A second cohort of mice (n = 30) was acclimated to the laboratory conditions for 1 week prior to the onset of the experiment. Mice were housed individually and their body weight and food intake was recorded daily for a baseline period of 10 days. Given that ghrelin augments the intake of preferred diets ([28]), all mice received ad libitum access to a high-fat diet (60% of calories coming from fat), in addition to regular chow, to determine if CF801 altered dietary preference. Both chow and high-fat diet pellets were provided daily to mice ad libitum in pre-weighed amounts. Mice were then assigned to four different groups: non-injected control (NIC; n = 7), vehicle (0.9% saline) (VEH; n = 7), low-dose CF801 (11 μmol⋅kg^−1 – LD; n = 8) and high-dose CF801 (22 μmol⋅kg^−1 – HD; n = 8). Each day at 09:00 hours, mice were weighed and their food intake (both chow and high-fat diet) was recorded. After this, mice received an intraperitoneal injection of either CF801 or saline (except for the non-injected controls). Following the 13-day treatment period, half the animals in each group were sacrificed, while the remaining mice were allowed to recover from treatment. […] Each carcass was analyzed separately and measurements of total fat mass, total lean mass, and total water weight were obtained for each mouse.

As to GSAFLSPEHQRK KRRQRRR-NH2 [CF801], the “food consumed during first hour of refeeding, high dose” value in experiment [1] (22 μmol⋅kg^−1 i.p., after fast, F(2,24) = 2.394, p < 0.05, partial eta^2 = 0.22) is “lower amount of food consumed”. For the same sequence, the “total chow consumed during 4-h food access, high dose vs saline” value in experiment [1] (22 μmol⋅kg^−1 i.p., HD vs saline, p < 0.01, Fisher LSD) is on record as “statistically significant”. Besides, the “total chow consumed during 4-h food access, treatment effect” value in experiment [1] (after fast, F(2,24) = 4.527, partial eta^2 = 0.411, p > 0.05 as printed) is given as “significant overall dose-dependent treatment effect”. The “food consumed, other time points” value in experiment [1] (any time point of 4 h refeeding other than first hour, p > 0.05) is on record as “No significant effects were seen at any other time point examined”. The “food intake or weight gain during first 3 days of treatment” value in experiment [1] (i.p. once daily, 11 and 22 μmol⋅kg^−1, data not shown, p > 0.05) is given as “No effects”. The “plasma acylated ghrelin concentration, high dose” value in the experiment with plasma acylated ghrelin (22 μmol⋅kg^−1 i.p. once daily for 4 days, after fast, vs vehicle, p < 0.05 Fisher LSD) is recorded as “statistically significant; also recorded: reduced levels of plasma acylated ghrelin”. In addition, the “plasma acylated ghrelin concentration, dose dependence” value in the experiment with plasma acylated ghrelin (i.p. once daily for 4 days, 11 and 22 μmol⋅kg^−1, F(2,24) = 2.90, p < 0.05, partial eta^2 = 0.22) is reported as “dose-dependent decrease in plasma ghrelin concentrations”. Further, in experiment [2] (11 μmol⋅kg^−1 i.p. daily, 13 days, p's < 0.05), the “high-fat diet intake, low dose vs NIC and VEH” value is listed as “significantly less high-fat diet”. Also, the “regular chow consumption, high dose” value in experiment [2] (22 μmol⋅kg^−1 i.p. daily, 13 days, vs every other group, F(3,28) = 5.305, p < 0.05, partial eta^2 = 0.41) is “significantly more regular chow”. In addition, the “high-fat diet intake, high dose vs NIC and VEH” value in experiment [2] (22 μmol⋅kg^−1 i.p. daily, 13 days, p's < 0.05) is reported as “significantly less high-fat diet”. In addition, in experiment [2] (8-day recovery without injection, F(1,29) = 2.093, p > 0.05), the “caloric intake, recovery period” value is “no differences between any groups”. Moreover, in experiment [2] (13-day i.p. treatment, 11 and 22 μmol⋅kg^−1, chow plus high-fat diet, F(1,29) = 0.783, p > 0.05), the “caloric intake, treatment period” value was “no differences between any groups”. Besides, the “high-fat diet intake, dose dependence” value in experiment [2] (13-day i.p. treatment, F(3,29) = 6.788, p < 0.05, partial eta^2 = 0.45) is reported as “overall significant dose-dependent decrease in the intake of the high-fat diet”. In experiment [2] (22 vs 11 μmol⋅kg^−1 i.p. daily, 13 days), the “high-fat diet intake, high dose vs low dose” value is reported as “tended to consume less than animals receiving LD CF801 (p = 0.073)”. The “caloric intake at end of treatment period” value in experiment [2] (once CF801 injections stop) is listed as “small spike in caloric intake”. The blood glucose concentrations entry in experiment [3] was “No significant differences”. The “respiratory exchange ratio (RER)” value in experiment [4] is “significant decrease in RER”. For the same sequence, the “weight gain, low dose vs NIC and VEH” value in the experiment “Body weight gain” (11 μmol⋅kg^−1 i.p. daily, not statistically significant) is “tended to have lower weight gain than control NIC (p = 0.092) and VEH-treated mice (p = 0.065)”. The “weight gain, high dose” value in the experiment “Body weight gain” (22 μmol⋅kg^−1 i.p. daily, vs saline or non-injected, F(3,29) = 3.098, p < 0.05, partial eta^2 = 0.271) was “decrease in weight gain”. Also, the “weight gain, low dose vs high dose” value in “Body weight gain” (11 vs 22 μmol⋅kg^−1 i.p. daily, p > 0.05) is “no differences in weight gain”.
